In patent US9340500B2, “Aromatic heterocyclic derivative having TRPV4-inhibiting activity” (SHIONOGI & CO., LTD., priority 2011, dated 2016) one finds Ki and IC50 data, which are given here for three compounds.

The Ki is a dissociation constant, usually derived from enzyme kinetics or from competition with a known ligand. For orientation: IC50 means the midpoint of a concentration-inhibition curve. High values mean weaker potency in that assay, low ones greater potency in that assay.

Assay [1] concerns the target T1, human TRPV4 (Homo sapiens (Human), UniProt Q9HBA0). In words: Test Example 3: measurement of TRPV4 inhibitory activity (Fluo-3, FDSS 3000, 4α-PDD). The class given is cell-based. The following applies: hTRPV4/CHO cells, calculated from IC50 and 4α-PDD EC50. A digest of the protocol:
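Fluo-3-loaded CHO-K1 cells stably expressing TRPV4 in HEPES/probenecid Hanks buffer pH 7.4; compound added, then 4α-PDD, Ca2+ fluorescence (Ex 480/Em 540 nm) read 8 min. Max-Min normalized to 10 μM Ruthenium Red (100%) and vehicle; IC50 from 10-point 3-fold series converted to Ki using 4α-PDD EC50 and concentration.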

For assay [2], the target named is T1, human TRPV4. In words: Test Example 1: measurement of TRPV4 inhibitory activity (Fluo 4-AM, FLIPR TETRA, 4α-PDD 1 μmol/L). The class given is cell-based. Particulars: hTRPV4/CHO cells, 4α-PDD 1 μmol/L. A digest of the protocol: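 Calcium influx evoked by 4α-PDD (final 1 μmol/L) in hTRPV4/CHO-K1 cells loaded with Fluo-4 AM (final 3 μmol/L), pH 7.4 HEPES-Hanks with probenecid; compounds added 5 min earlier. Inhibition relative to 20 μM Ruthenium Red gave IC50 (logistic), converted to Ki via agonist EC50.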

T1 sequence (Q9HBA0 whole entry): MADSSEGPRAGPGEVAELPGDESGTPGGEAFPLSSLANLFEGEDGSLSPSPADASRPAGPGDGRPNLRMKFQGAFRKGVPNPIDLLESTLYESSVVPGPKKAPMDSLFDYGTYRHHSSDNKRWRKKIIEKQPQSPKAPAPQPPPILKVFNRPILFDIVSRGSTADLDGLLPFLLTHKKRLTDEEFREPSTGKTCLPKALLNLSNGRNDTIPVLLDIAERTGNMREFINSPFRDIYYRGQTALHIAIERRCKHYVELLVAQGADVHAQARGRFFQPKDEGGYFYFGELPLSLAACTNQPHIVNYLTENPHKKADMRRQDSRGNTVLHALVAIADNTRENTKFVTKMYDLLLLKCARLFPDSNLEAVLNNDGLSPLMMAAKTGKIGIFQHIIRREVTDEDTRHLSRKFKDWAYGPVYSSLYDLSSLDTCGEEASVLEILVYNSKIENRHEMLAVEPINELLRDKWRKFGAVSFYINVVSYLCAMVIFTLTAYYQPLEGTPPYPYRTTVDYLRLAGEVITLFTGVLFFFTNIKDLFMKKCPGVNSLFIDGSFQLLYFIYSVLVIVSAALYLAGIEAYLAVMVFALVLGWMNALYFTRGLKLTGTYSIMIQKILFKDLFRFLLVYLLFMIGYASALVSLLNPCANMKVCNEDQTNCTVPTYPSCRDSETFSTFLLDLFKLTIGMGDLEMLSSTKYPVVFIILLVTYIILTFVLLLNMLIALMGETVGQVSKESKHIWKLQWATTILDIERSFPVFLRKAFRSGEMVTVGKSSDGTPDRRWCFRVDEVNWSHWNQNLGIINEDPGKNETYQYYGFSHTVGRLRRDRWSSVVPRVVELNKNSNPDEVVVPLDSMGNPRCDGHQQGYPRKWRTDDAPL

For `Cc1c(C(=O)Nc2cccc(C(F)(F)F)c2)ccn1CCCN1CCOCC1` [Compound I-007], the Ki on human TRPV4 [1] was 1450 nM. Moreover, the IC50 against human TRPV4 [2] came out at 8900 nM.

With `Cc1c(C(=O)Nc2cccc(C(F)(F)F)c2)cc(-c2ccccc2)n1CCCN(C)C` [Compound I-018], the Ki at human TRPV4 [1] is 169 nM. The same compound returned an IC50 against human TRPV4 [2] of 330 nM.

Regarding `Cc1c(C(=O)Nc2cccc(C(F)(F)F)c2)cc(-c2ccccc2)n1CCCNS(C)(=O)=O` [Compound I-026], the Ki at human TRPV4 [1] is 427 nM. The IC50 on human TRPV4 [2] is 860 nM.
